We go through 13 compounds from PubChem BioAssay AID180 (DTP/NCI, 2004).

“And” between values parts separate entries of the source, which are not always exact repeats. Equal values may be shown once.

This assay deals with BDF1 mice, Adenocarcinoma 755 s.c., tumor weight T/C. The experiment in a line: NCI In Vivo Anticancer Drug Screen. Data for tumor model Adenocarcinoma 755 (subcutaneous) in B6D2F1 (BDF1) mice. The conditions noted are these: endpoint: mean tumor weight, higher = larger tumour. In a few lines: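 Compound activity was tested in mice carrying transplanted tumors. Survival or tumor size was measured, and each value is the treated-group measurement divided by that of the vehicle-treated control group (T/C).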

Where [1] appears, read: dose: 15.0 mg/kg/injection, schedule: Q01DX011 (ip), vehicle: methylcellulose (MC).
[2] abbreviates: dose: 25.0 mg/kg/injection, schedule: Q01DX011 (ip), vehicle: methylcellulose (MC).
The mark [3] stands for this setting: dose: 75.0 mg/kg/injection, schedule: Q01DX011 (ip), vehicle: methylcellulose (MC).
Where [4] appears, read: dose: 225.0 mg/kg/injection, schedule: Q01DX011 (ip), vehicle: methylcellulose (MC).
[5] abbreviates: dose: 31.0 mg/kg/injection, schedule: Q01DX011 (ip), vehicle: methylcellulose (MC).
The mark [6] stands for this setting: dose: 62.0 mg/kg/injection, schedule: Q01DX011 (ip), vehicle: methylcellulose (MC).
[7] abbreviates: dose: 125.0 mg/kg/injection, schedule: Q01DX011 (ip), vehicle: methylcellulose (MC).
The mark [8] stands for this setting: dose: 250.0 mg/kg/injection, schedule: Q01DX011 (ip), vehicle: methylcellulose (MC).

With `OC(CBr)C(O)C(O)C(O)CBr` (stereo not given), the T/C (commonly the result in the treated group divided by that in the control group, in per cent) is 48 % of control (dose: 25.0 mg/kg/injection, schedule: Q01DX011 (ip), vehicle: saline); 64 % of control and 71 % of control (dose: 50.0 mg/kg/injection, schedule: Q01DX011 (ip), vehicle: saline); 66 % of control and 72 % of control (dose: 100.0 mg/kg/injection, schedule: Q01DX011 (ip), vehicle: saline); 38 % of control and 50 % of control (dose: 200.0 mg/kg/injection, schedule: Q01DX011 (ip), vehicle: saline); 29 % of control (dose: 400.0 mg/kg/injection, schedule: Q01DX011 (ip), vehicle: saline).

On to `O=C(Nc1ccc(C2=NC3CCCCC3N2)cc1)c1cccc(C(=O)Nc2ccc(C3=NC4CCCCC4N3)cc2)c1` (stereo not given), for which the T/C runs as follows: under setting [1], 73 % of control; (dose: 30.0 mg/kg/injection, schedule: Q01DX011 (ip), vehicle: methylcellulose (MC)) 81 % of control; (dose: 60.0 mg/kg/injection, schedule: Q01DX011 (ip), vehicle: methylcellulose (MC)) 73 % of control; (dose: 120.0 mg/kg/injection, schedule: Q01DX011 (ip), vehicle: methylcellulose (MC)) 59 % of control.

As for `CC1CCN(C(=O)CCCl)c2ccccc21` (stereo not given), the T/C reads like this: under setting [2], 101 % of control; under setting [3], 71 % of control; under setting [4], 82 % of control.

For `Nc1nc(Cl)cc(Nc2ccccc2Cl)n1`, the T/C under setting [1] is 110 % of control; the T/C under setting [5] was 49 % of control; the T/C under setting [6] was 89 % of control; the T/C under setting [7] was 89 % of control; the T/C under setting [8] was 75 % of control.

With `O=P(OCC1OC(n2cnc3c(=S)nc[nH]c32)C(O)C1O)(Oc1ccccc1)Oc1ccccc1` (stereo not given), the T/C by setting is: (dose: 4.0 mg/kg/injection, schedule: Q01DX011 (ip), vehicle: methylcellulose (MC)) 89 % of control; (dose: 8.0 mg/kg/injection, schedule: Q01DX011 (ip), vehicle: methylcellulose (MC)) 88 % of control; (dose: 16.0 mg/kg/injection, schedule: Q01DX011 (ip), vehicle: methylcellulose (MC)) 41 % of control; under setting [5], 39 % of control; under setting [6], 36 % of control; under setting [7], 34 % of control.

In the case of `Nc1nc(SCc2ccccc2)c2ncn(C3CCCCC3)c2n1`, the T/C reads like this: under setting [2], 113 % of control; under setting [3], 121 % of control; under setting [4], 210 % of control.

Take `O=c1[nH]cc(N(CCCl)CCCl)c(=O)[nH]1`: the T/C (dose: 0.17 mg/kg/injection, schedule: Q01DX011 (ip), vehicle: carboxymethylcellulose (CMC)) is 82 % of control; the T/C (dose: 0.21 mg/kg/injection, schedule: Q01DX011 (ip), vehicle: carboxymethylcellulose (CMC)) was 93 % of control and 94 % of control; the T/C (dose: 0.34 mg/kg/injection, schedule: Q01DX011 (ip), vehicle: carboxymethylcellulose (CMC)) is 86 % of control; the T/C (dose: 0.42 mg/kg/injection, schedule: Q01DX011 (ip), vehicle: carboxymethylcellulose (CMC)) was 53 % of control and 54 % of control; the T/C (dose: 0.67 mg/kg/injection, schedule: Q01DX011 (ip), vehicle: carboxymethylcellulose (CMC)) was 45 % of control; the T/C (dose: 0.68 mg/kg/injection, schedule: Q01DX011 (ip), vehicle: carboxymethylcellulose (CMC)) is 77 % of control and 80 % of control. The T/C (dose: 0.83 mg/kg/injection, schedule: Q01DX011 (ip), vehicle: carboxymethylcellulose (CMC)) was 58 % of control; the T/C (dose: 1.11 mg/kg/injection, schedule: Q01DX011 (ip), vehicle: carboxymethylcellulose (CMC)) is 59 % of control; the T/C (dose: 1.13 mg/kg/injection, schedule: Q01DX011 (ip), vehicle: carboxymethylcellulose (CMC)) was 40 % of control; the T/C (dose: 1.35 mg/kg/injection, schedule: Q01DX011 (ip), vehicle: carboxymethylcellulose (CMC)) is 22 % of control; the T/C (dose: 1.67 mg/kg/injection, schedule: Q01DX011 (ip), vehicle: carboxymethylcellulose (CMC)) is 18 % of control; the T/C (dose: 1.69 mg/kg/injection, schedule: Q01DX011 (ip), vehicle: carboxymethylcellulose (CMC)) was 27 % of control and 28 % of control.

As for `S=c1nc[nH]c2c1ncn2C1CC1`, the T/C was 86 % of control (dose: 31.0 mg/kg/injection, schedule: Q01DX011 (ip), vehicle: carboxymethylcellulose (CMC)); 89 % of control (dose: 62.0 mg/kg/injection, schedule: Q01DX011 (ip), vehicle: carboxymethylcellulose (CMC)); 86 % of control (dose: 125.0 mg/kg/injection, schedule: Q01DX011 (ip), vehicle: carboxymethylcellulose (CMC)); 33 % of control (dose: 250.0 mg/kg/injection, schedule: Q01DX011 (ip), vehicle: carboxymethylcellulose (CMC)); 59 % of control (dose: 500.0 mg/kg/injection, schedule: Q01DX011 (ip), vehicle: carboxymethylcellulose (CMC)).

For the compound `Nc1nc(Cl)cc(Nc2cccc(Cl)c2)n1`, the T/C by setting is: under setting [1], 99 % of control; under setting [5], 104 % of control; under setting [6], 103 % of control; under setting [7], 94 % of control; under setting [8], 68 % of control.

`CSc1nc(N)nc2nc[nH]c12`: the T/C by setting is: (dose: 0.6 mg/kg/injection, schedule: Q01DX011 (ip), vehicle: carboxymethylcellulose (CMC)) 51 % of control; (dose: 1.25 mg/kg/injection, schedule: Q01DX011 (ip), vehicle: carboxymethylcellulose (CMC)) 55 % of control; (dose: 2.5 mg/kg/injection, schedule: Q01DX011 (ip), vehicle: carboxymethylcellulose (CMC)) 75 % of control; (dose: 5.0 mg/kg/injection, schedule: Q01DX011 (ip), vehicle: carboxymethylcellulose (CMC)) 28 % of control; (dose: 15.0 mg/kg/injection, schedule: Q01DX011 (ip), vehicle: carboxymethylcellulose (CMC)) 1 % of control.

As to `NC1C(O)C(O)C(Nc2ncnc3nc[nH]c23)OC1C(O)CO` (stereo not given), the T/C by setting is: (dose: 0.18 mg/kg/injection, schedule: Q## X000 (ip), vehicle: carboxymethylcellulose (CMC)) 65 % of control; (dose: 0.35 mg/kg/injection, schedule: Q## X000 (ip), vehicle: carboxymethylcellulose (CMC)) 65 % of control; (dose: 0.7 mg/kg/injection, schedule: Q## X000 (ip), vehicle: carboxymethylcellulose (CMC)) 67 % of control; (dose: 1.35 mg/kg/injection, schedule: Q## X000 (ip), vehicle: carboxymethylcellulose (CMC)) 107 % of control.

Consider `CC(C)Cn1cnc2c(SCc3ccccc3[N+](=O)[O-])nc(N)nc21`, for which the T/C (dose: 37.5 mg/kg/injection, schedule: Q01DX011 (ip), vehicle: methylcellulose (MC)) was 42 % of control; the T/C under setting [3] was 97 % of control; the T/C (dose: 150.0 mg/kg/injection, schedule: Q01DX011 (ip), vehicle: methylcellulose (MC)) was 62 % of control; the T/C (dose: 300.0 mg/kg/injection, schedule: Q01DX011 (ip), vehicle: methylcellulose (MC)) is 14 % of control.

Take `C=CC(O)CN1CC1=C` (stereo not given): the T/C (dose: 1.9 mg/kg/injection, schedule: Q01DX011 (ip), vehicle: methylcellulose (MC)) was 77 % of control; the T/C (dose: 3.75 mg/kg/injection, schedule: Q01DX011 (ip), vehicle: methylcellulose (MC)) is 111 % of control; the T/C (dose: 7.5 mg/kg/injection, schedule: Q01DX011 (ip), vehicle: methylcellulose (MC)) is 73 % of control; the T/C under setting [1] was 21 % of control.
